Target: T1, mtIF2 (in mtPIC-2, mtSSU-mtIF2-mtIF3) (Homo sapiens, UniProt P46199)
T1 construct: mature mtIF2 residues 38-727, codon-optimized, pET-24b, E. coli Rosetta 2, Ni resin (His-tag implied) and gel filtration; with Translation initiation factor IF-3, mitochondrial
Assay: cryo-EM structure
Type: binding
Conditions: GTPase G-domain site, preactive state; mtIF2 (1 uM) preincubated with 2.5 mM GDPNP; mtSSU-mtIF3 bound; 25 mM HEPES-KOH pH 7.5, 5 mM Mg(OAc)2, 100 mM KCl; 3.1 A map

SMILES: Nc1nc2c(ncn2[C@@H]2O[C@H](COP(=O)(O)OP(=O)(O)NP(=O)(O)O)[C@@H](O)[C@H]2O)c(=O)[nH]1 [GDPNP]
- cryo-EM structure: The G-domain-bound GDPNP is found in close proximity to the mtIF2-domain III
